Experimental findings from ChEMBL document CHEMBL1158941, “Diterpenes from the Pohnpeian marine sponge Chelonaplysilla sp” (J Nat Prod, 1991) are described below.

The structures appear in SMILES notation. The source made the active and inactive calls. The rule behind the calls is not given here.

In assay [1] the test system is Bacillus subtilis. The assay can be described thus: Antimicrobial activity against Bacillus subtilis at 5 ug/disk. Type of assay: functional, organism-based.
The subject of assay [2] is Bacillus subtilis. The assay is described as follows: Antimicrobial activity against Bacillus subtilis at 50 ug/disk. Type of assay: functional, organism-based.

`C=C1CCCC(C)(C)[C@@H]2CC[C@@](C)([C@@H]3[C@@H]4OC(=O)C[C@H]3[C@H](OC(C)=O)O4)[C@H]12`: the result with Bacillus subtilis [1] was Active.
In the case of `C=C([C@@H]1[C@@H]2OC(=O)C[C@H]1[C@H](OC(C)=O)O2)[C@H]1CC[C@H]2C(C)(C)CCCC(=C)[C@]12C`, the outcome in the assay on Bacillus subtilis [1] was Active.
Take `C=C1CCCC(C)(C)[C@@H]2CC[C@@](C)([C@@H]3[C@H]4CC(=O)O[C@H]4O[C@H]3O)[C@H]12`: the outcome with Bacillus subtilis [2] was Active.
